# Experimental data taken from patent US20080021099A1, “5-Cyano-prostacyclin derivatives as agents for the treatment of autoimmune disease” (Bayer Schering Pharma Aktiengesellschaft, priority 2006, published 2008).
# Read-outs that look alike come from different tables or passages of the source.
# What was measured:
# Type in all cases: cell-based
# human T cells = assay: ConA-stimulated T lymphocyte Th-1 cytokine (IFN-γ) release, ELISA; details: for inhibition at 0.0005 µM / inhibition at 0.00125 µM / inhibition at 0.0025 µM / inhibition at 0.005 µM / inhibition at 0.01 µM / inhibition at 0.02 µM: Homo sapiens, T-cell, 18 h, ConA 2 μg/mL, approx. 18 hr, read-out: Inhibition (percent) of IFN-γ release; for inhibition at 0.0005 µM: Nileprost 0.5 nM; for inhibition at 0.00125 µM: Nileprost 1.25 nM; for inhibition at 0.0025 µM: Nileprost 2.5 nM; for inhibition at 0.005 µM: Nileprost 5 nM; for inhibition at 0.01 µM: Nileprost 10 nM; for inhibition at 0.02 µM: Nileprost 20 nM
# Source text: The activation of a human T lymphocyte by an antigen-presenting cell and antigen through the T cell receptor is mimicked in experimental conditions by the lectin Concanavilin A (ConA). It is known that ConA binds to the T cell receptor and stimulates the cell to release various cytokines. The binding of Nileprost to the EP receptor inhibits various cytokines release. One of the Th-1 released cytokines is IFN-γ. The biochemistry and biological activities of IFN-γ have been extensively reviewed in the literature.
# Human IFN-γ is a dimer of the expressed 143 amino acid protein. Enzyme-linked immunosorbant assays (ELISA) based on antibodies specific to IFN-γ are commercially available. Standards and samples are pipetted into the wells of a microplate. An antibody specific to human IFN-γ is added to the wells. A substrate is added to the wells and color develops in proportion to the amount of IFN-γ bound. The intensity of the color is measured.
# Peripheral blood lymphocytes were isolated from human donors using a Ficoll density gradient and residual erythrocytes were removed by selective lysis. The lymphocytes are cultured at approximately 10^6 cells per mL in RPMI1640 with 10% additional fetal bovine serum. The cell cultures were activated with 2 μg/mL of ConA as described above. Nileprost was added at various dilutions during the ConA activation. Cells were incubated for approximately 18 hr at 37° C. IFN-γ released during activation was measured by ELISA.
# human CD8 cells = assay: Anti-CD3/CD28-stimulated cytotoxic CD8+ lymphocyte cytokine release, multi-cytokine bead immunoassay; details: 1 μM Nileprost; for inhibition at 1 µM: Homo sapiens, Lymphocyte, Anti-CD3/CD28 stimulation, overnight
# Source text: The activation of a human T lymphocyte by an antigen-presenting cell and antigen through the T cell receptor is mimicked in experimental conditions by the addition of antibodies to the CD3 subunit of the T cell receptor and antibodies to the CD28 costimulatory receptor. It is known that anti-CD3 anti-CD28 binding to T lymphocytes stimulates the cells to release various cytokines. Some of these cytokines are IL-2, IFN-γ and GM-CSF. The biochemistry and biological activities of these cytokines have been extensively reviewed in the literature. The binding of Nileprost to the EP receptor inhibits the release of various CD8+ cytokines.
# Multi-cytokine immunosorbant assays based on antibodies specific to human cytokines are commercially available. Standards and samples are pipetted into sample tubes. A monoclonal antibody specific for a cytokine is covalently linked to a fluorescent bead set, which captures the cytokine. A complementary biotinylated monoclonal cytokine antibody then completes the immunological sandwich and the reaction is detected with streptavidin-phycoerythrin.
# CD14-negative populations were isolated from four donors by Miltenyi CD14 beads. The four populations were allowed to rest at 5×10^6/mL in separate flasks overnight in RPMI 1640, 10% fetal bovine serum. Meanwhile, anti-CD3 antibody (OKT3, functional antibody, eBioscience) were bound to 10 cm plates at 5 μg/mL in sodium carbonate binding buffer at 4° C. The next day, the cells were mixed and 1×10^9 cells were taken for CD8 isolation using the Milenyi CD8 isolation kit (negative selection). The resulting 3.9×10^8 CD8 cells were resuspended in medium at 4×10^6/mL and added to the 10 cm CD3-bound plates. Soluble anti-CD28 (2-5 μg/mL) and 1 μM Nileprost or vehicle alone were added to the CD8 cells. Incubation was continued overnight and cytokines were detected as described above.
# [1] = system: Human monocyte derived dendritic cells; assay: LPS-stimulated monocyte-derived dendritic cell IL-12 release, ELISA; details: 1 μM of Nileprost; for inhibition at 1 µM: Homo sapiens, Dendritic cell, 18 h, 10 ng/mL LPS, approx. 18 hr, read-out: Inhibition (percent) of IL-12 release
# Source text: Following stimulation through the toll-like receptors TLR, DCs express and release proinflammatory cytokines and chemokines and may induce activation and proliferation of naïve T cells. The binding of Nileprost to the EP receptor inhibits TLR4 ligand (LPS)-stimulated IL-12 release. Therefore, Nileprost skews the CD4 T cell differentiation to a Th-2 lineage.
# IL-12 is a 75 kDa glycoprotein heterodimer (p70) composed of two genetically unrelated subunits linked by a disulfide bond. Enzyme-linked immunosorbant assays based on antibodies specific to IL-12 p70 are commercially available. Standards and samples are pipetted into the wells of a microplate. An antibody specific to human IL-12 is added to the wells. A substrate is added to the wells and color develops in proportion to the amount of IL-12 bound. The intensity of the color is measured.
# Human monocyte-derived dendritic cells were isolated from human donors using a Ficoll density gradient and residual erythrocytes were removed by selective lysis. CD14 MicroBeads were used for separation of human cells based on the expression of the CD14 antigen. The dendritic cells were cultured at approximately 1.5×10^6 cells per mL in RPMI1640 with fetal bovine serum, 200 ng/mL GM-CSF (Leukine) and 10 ng/mL IL-4. The cells grew for a period of 3 days and then the media was changed. 10 ng/mL LPS was used to activate the cells. 1 μM of Nileprost and 1 µM of PGE2 were added during the LPS stimulation. Cells were incubated for approximately 18 hr at 37° C. IL-12 released during activation was measured by ELISA.
compound,measurement,setting,value
CCCCC(C)[C@H](O)/C=C/[C@@H]1[C@H]2C/C(=C(\C#N)CCCC(=O)O)O[C@H]2C[C@H]1O (stereo partly shown) [Nileprost],inhibition at 0.0005 µM,human T cells; Donor 1,17%
same,inhibition at 0.00125 µM,human T cells; Donor 1,23%
same,inhibition at 0.0025 µM,human T cells; Donor 1,45%
same,inhibition at 0.005 µM,human T cells; Donor 1,56%
same,inhibition at 0.01 µM,human T cells; Donor 1,50%
same,inhibition at 0.02 µM,human T cells; Donor 1,67%
same,inhibition at 0.0005 µM,human T cells; Donor 2,2%
same,inhibition at 0.00125 µM,human T cells; Donor 2,11%
same,inhibition at 0.0025 µM,human T cells; Donor 2,17%
same,inhibition at 0.005 µM,human T cells; Donor 2,35%
same,inhibition at 0.01 µM,human T cells; Donor 2,43%
same,inhibition at 0.02 µM,human T cells; Donor 2,41%
same,inhibition at 0.0005 µM,human T cells; Donor 3,26%
same,inhibition at 0.00125 µM,human T cells; Donor 3,36%
same,inhibition at 0.0025 µM,human T cells; Donor 3,43%
same,inhibition at 0.005 µM,human T cells; Donor 3,54%
same,inhibition at 0.01 µM,human T cells; Donor 3,64%
same,inhibition at 0.02 µM,human T cells; Donor 3,68%
same,inhibition at 0.0005 µM,human T cells; Donor 4,21%
same,inhibition at 0.00125 µM,human T cells; Donor 4,29%
same,inhibition at 0.0025 µM,human T cells; Donor 4,31%
same,inhibition at 0.005 µM,human T cells; Donor 4,48%
same,inhibition at 0.01 µM,human T cells; Donor 4,55%
same,inhibition at 0.02 µM,human T cells; Donor 4,56%
same,Inhibitory activity in T lymphocyte Th-1 cytokine release (in words),"human T cells; dose responsively, 0.5-20 nM",very high inhibitory activity
same,Inhibitory activity in cytotoxic CD8+ lymphocyte cytokine release (in words),human CD8 cells,very high inhibitory activity
same,inhibition at 1 µM,"human CD8 cells; Donor 1, read-out: Inhibition (percent) of GM-CSF release",77%
same,inhibition at 1 µM,"human CD8 cells; Donor 1, read-out: Inhibition (percent) of IFN-γ release",79%
same,inhibition at 1 µM,"human CD8 cells; Donor 1, read-out: Inhibition (percent) of IL-2 release",71%
same,inhibition at 1 µM,"human CD8 cells; Donor 2, read-out: Inhibition (percent) of GM-CSF release",65%
same,inhibition at 1 µM,"human CD8 cells; Donor 2, read-out: Inhibition (percent) of IFN-γ release",59%
same,inhibition at 1 µM,"human CD8 cells; Donor 2, read-out: Inhibition (percent) of IL-2 release",68%
same,inhibition at 1 µM,"human CD8 cells; Donor 3, read-out: Inhibition (percent) of GM-CSF release",87%
same,inhibition at 1 µM,"human CD8 cells; Donor 3, read-out: Inhibition (percent) of IFN-γ release",79%
same,inhibition at 1 µM,"human CD8 cells; Donor 3, read-out: Inhibition (percent) of IL-2 release",88%
same,inhibition at 1 µM,"human CD8 cells; Donor 4, read-out: Inhibition (percent) of GM-CSF release",61%
same,inhibition at 1 µM,"human CD8 cells; Donor 4, read-out: Inhibition (percent) of IFN-γ release",80%
same,inhibition at 1 µM,"human CD8 cells; Donor 4, read-out: Inhibition (percent) of IL-2 release",70%
same,Inhibitory activity in human monocyte-derived dendritic cell (DC) cytokine release (in words),[1],very high inhibitory activity
same,inhibition at 1 µM,[1]; Donor 1,84%
same,inhibition at 1 µM,[1]; Donor 2,51%
same,inhibition at 1 µM,[1]; Donor 3,69%
same,inhibition at 1 µM,[1]; Donor 4,66%
